Holding throughout (assay): selectivity profiling in a panel of 340 wild-type kinases (Reaction Biology Europe)
Format in all cases: binding

The target of assay [1] is T1, 340 wild-type kinases (Homo sapiens, UniProt P14616).
T1 construct: purchased Reaction Biology Europe

In assay [2] the target is T2, 340 wild-type kinases (Homo sapiens, UniProt Q8WTQ7).
T2 construct: purchased Reaction Biology Europe
T2 sequence (Q8WTQ7 1-553): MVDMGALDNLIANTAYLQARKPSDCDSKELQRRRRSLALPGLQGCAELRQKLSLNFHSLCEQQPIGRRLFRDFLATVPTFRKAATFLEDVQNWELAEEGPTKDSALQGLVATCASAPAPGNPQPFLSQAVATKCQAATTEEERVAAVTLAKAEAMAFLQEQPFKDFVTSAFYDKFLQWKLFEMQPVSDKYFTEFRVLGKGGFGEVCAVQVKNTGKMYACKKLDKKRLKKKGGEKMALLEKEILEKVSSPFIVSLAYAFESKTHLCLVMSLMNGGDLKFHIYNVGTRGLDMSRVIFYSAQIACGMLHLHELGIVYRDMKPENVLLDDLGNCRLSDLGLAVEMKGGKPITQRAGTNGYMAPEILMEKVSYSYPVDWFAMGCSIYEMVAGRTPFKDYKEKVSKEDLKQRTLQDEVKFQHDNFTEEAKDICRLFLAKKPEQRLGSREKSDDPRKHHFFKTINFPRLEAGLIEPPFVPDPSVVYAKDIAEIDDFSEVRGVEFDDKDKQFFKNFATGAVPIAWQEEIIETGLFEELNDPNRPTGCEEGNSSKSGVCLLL

For assay [3], the target named is T3, 340 wild-type kinases (Homo sapiens, UniProt P57078).
T3 construct: purchased Reaction Biology Europe
T3 sequence (P57078 1-832): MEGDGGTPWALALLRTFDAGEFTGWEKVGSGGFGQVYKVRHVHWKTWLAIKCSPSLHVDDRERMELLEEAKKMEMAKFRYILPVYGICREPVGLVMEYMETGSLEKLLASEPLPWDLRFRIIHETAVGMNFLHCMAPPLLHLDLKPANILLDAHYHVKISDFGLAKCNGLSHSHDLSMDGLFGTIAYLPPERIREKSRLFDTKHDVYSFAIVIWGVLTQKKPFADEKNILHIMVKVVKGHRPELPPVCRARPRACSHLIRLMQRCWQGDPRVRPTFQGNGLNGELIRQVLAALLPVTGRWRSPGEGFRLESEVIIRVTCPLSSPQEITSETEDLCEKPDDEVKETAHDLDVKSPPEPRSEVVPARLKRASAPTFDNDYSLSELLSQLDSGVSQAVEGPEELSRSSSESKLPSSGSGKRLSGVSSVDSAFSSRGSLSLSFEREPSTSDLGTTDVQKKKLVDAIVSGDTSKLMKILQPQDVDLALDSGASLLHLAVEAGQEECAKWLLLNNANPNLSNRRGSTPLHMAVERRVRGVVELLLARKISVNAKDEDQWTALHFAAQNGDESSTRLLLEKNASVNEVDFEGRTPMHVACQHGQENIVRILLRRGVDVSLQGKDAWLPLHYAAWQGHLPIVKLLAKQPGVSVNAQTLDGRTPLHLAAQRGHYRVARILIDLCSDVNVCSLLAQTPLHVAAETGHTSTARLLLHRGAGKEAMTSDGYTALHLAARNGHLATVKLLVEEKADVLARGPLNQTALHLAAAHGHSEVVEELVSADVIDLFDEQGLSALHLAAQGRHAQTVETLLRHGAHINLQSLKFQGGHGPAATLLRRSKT

Assay [4] addresses T4, 340 wild-type kinases (Homo sapiens, UniProt Q8IW41).
T4 construct: purchased Reaction Biology Europe
T4 sequence (Q8IW41 1-473): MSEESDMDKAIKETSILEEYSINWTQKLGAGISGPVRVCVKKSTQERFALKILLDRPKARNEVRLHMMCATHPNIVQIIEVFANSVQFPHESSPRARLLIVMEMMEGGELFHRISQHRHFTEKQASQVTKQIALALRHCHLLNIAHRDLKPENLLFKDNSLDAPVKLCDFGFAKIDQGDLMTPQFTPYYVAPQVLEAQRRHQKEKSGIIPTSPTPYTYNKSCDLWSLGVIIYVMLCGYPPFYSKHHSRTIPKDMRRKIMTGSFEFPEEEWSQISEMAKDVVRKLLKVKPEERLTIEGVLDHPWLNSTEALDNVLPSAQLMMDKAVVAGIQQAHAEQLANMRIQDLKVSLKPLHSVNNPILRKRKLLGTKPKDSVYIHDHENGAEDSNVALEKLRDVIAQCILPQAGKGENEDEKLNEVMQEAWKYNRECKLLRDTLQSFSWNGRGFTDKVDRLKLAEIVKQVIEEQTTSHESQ

For assay [5], the target named is T5, 340 wild-type kinases (Homo sapiens, UniProt Q5S007).
T5 construct: purchased Reaction Biology Europe
T5 sequence (Q5S007 whole entry): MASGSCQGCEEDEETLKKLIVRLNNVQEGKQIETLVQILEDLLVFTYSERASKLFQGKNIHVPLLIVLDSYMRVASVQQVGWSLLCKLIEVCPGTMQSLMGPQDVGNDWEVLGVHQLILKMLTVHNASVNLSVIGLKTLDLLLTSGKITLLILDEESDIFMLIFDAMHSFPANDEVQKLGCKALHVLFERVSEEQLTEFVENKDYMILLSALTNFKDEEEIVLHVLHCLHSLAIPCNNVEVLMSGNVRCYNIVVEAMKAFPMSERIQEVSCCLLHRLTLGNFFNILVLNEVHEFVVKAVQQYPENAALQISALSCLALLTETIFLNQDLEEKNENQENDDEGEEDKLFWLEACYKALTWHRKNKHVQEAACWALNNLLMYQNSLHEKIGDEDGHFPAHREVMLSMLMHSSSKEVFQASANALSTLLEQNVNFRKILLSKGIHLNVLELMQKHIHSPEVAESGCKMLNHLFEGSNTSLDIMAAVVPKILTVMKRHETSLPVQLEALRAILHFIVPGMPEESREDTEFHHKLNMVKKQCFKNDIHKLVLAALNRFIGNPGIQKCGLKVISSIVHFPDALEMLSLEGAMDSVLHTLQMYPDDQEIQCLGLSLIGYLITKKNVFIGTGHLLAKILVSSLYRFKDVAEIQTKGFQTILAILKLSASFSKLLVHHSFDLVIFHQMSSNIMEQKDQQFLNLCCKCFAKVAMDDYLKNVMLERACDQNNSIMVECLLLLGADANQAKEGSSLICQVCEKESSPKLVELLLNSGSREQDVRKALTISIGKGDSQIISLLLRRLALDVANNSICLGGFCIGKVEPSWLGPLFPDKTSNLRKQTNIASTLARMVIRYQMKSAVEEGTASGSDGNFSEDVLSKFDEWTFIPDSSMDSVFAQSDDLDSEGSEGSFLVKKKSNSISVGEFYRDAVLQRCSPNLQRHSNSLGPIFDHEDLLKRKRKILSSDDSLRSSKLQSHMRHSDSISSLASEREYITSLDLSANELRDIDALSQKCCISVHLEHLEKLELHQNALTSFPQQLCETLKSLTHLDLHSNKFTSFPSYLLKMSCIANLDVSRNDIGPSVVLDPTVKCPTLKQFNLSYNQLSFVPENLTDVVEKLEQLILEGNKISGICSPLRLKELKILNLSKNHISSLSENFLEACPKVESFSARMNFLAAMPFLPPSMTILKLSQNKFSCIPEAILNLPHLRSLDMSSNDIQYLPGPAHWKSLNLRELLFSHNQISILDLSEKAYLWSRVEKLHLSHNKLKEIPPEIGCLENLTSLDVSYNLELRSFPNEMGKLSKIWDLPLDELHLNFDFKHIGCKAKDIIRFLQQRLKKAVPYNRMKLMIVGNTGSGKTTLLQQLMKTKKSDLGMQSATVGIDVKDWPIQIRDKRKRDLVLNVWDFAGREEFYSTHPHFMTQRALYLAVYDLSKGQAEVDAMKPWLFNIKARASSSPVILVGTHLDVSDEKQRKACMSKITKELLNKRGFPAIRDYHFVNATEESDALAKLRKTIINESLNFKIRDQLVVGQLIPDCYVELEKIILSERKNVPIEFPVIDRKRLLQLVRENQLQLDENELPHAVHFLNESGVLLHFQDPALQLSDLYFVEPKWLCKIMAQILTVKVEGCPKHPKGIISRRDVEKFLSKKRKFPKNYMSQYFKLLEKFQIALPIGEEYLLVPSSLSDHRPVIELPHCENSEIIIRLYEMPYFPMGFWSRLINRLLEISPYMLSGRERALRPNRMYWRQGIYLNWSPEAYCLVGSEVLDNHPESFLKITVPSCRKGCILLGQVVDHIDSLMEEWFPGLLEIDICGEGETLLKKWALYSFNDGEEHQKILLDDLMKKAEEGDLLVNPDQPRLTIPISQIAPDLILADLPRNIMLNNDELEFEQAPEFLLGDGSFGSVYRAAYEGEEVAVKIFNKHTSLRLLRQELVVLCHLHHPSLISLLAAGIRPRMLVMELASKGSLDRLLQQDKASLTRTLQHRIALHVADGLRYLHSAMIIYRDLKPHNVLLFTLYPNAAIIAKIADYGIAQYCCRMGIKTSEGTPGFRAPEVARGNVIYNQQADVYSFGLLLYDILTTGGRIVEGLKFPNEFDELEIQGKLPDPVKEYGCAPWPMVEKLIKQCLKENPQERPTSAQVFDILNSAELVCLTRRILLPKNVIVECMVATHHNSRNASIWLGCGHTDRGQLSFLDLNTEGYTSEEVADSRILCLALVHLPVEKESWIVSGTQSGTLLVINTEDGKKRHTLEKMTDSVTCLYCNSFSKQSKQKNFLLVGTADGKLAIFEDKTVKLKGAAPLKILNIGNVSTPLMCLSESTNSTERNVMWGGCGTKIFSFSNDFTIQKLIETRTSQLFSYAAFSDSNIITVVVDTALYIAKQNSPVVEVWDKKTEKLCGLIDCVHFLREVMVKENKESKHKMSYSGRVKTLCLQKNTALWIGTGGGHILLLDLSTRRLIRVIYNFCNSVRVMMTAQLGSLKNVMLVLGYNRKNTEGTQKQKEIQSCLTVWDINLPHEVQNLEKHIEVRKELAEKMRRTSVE

Like-named read-outs stand apart in the source and are kept apart here.

Experimental findings from article PMC11864979, “First-in-class ultralong-target-residence-time p38α inhibitors as a mitosis-targeted therapy for colorectal cancer” (Nature Cancer, 2025) are described below.

T1 sequence (P14616 27-1297): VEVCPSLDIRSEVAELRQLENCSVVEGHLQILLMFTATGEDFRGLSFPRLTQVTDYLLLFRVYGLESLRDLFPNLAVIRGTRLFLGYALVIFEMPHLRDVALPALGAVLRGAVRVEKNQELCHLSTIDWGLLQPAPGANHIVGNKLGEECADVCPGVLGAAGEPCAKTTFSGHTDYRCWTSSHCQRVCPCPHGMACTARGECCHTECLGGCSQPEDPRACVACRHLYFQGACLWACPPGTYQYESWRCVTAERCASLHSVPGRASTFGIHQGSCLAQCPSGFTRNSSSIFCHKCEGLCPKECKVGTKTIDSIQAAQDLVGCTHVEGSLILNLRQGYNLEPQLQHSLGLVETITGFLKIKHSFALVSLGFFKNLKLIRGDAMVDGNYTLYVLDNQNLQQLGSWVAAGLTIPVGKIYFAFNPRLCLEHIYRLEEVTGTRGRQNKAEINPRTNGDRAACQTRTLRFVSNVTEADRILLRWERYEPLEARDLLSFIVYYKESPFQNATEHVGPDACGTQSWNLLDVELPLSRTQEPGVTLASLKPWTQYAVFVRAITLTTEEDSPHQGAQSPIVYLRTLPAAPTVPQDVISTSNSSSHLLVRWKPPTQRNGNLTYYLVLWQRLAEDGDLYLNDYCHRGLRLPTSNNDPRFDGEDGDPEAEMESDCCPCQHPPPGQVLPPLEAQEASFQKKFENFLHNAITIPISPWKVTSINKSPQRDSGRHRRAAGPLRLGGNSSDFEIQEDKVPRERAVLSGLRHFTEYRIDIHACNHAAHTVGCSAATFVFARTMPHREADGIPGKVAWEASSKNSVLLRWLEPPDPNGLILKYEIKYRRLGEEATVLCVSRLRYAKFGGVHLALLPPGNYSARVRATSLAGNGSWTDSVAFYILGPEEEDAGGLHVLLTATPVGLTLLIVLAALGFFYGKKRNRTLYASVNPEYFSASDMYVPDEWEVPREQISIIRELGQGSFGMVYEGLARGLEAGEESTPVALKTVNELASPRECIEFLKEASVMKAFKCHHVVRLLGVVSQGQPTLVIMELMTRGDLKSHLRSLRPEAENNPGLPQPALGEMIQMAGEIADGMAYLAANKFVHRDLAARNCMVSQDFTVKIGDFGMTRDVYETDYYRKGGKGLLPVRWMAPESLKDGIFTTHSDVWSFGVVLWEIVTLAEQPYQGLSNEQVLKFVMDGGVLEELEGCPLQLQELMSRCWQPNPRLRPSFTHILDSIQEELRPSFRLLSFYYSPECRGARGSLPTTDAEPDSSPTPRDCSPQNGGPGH

`CNC(=O)c1ccc2c(c1)C(=O)c1ccc(Nc3ccc(F)c(NC(=O)C4CC4)c3)cc1CC2` [Compound 2015]: the remaining activity at 0.2 µM on 340 wild-type kinases [1] (0.2 µM 2015, read-out: INSRR residual activity) turned out to be 96%; at 340 wild-type kinases [1] (INSRR, 0.2 µM, read-out: residual activity) it was 96%; at 340 wild-type kinases [2] (0.2 µM 2015, read-out: GRK7 residual activity), 123%; on 340 wild-type kinases [2] (GRK7, 0.2 µM, read-out: residual activity), 123%; on 340 wild-type kinases [3] (0.2 µM 2015, read-out: RIPK4 residual activity), 104%; at 340 wild-type kinases [3] (RIPK4, 0.2 µM, read-out: residual activity), 104%. Moreover, the remaining activity at 0.2 µM on 340 wild-type kinases [4] (0.2 µM 2015, read-out: MAPKAPK5 residual activity) was determined as 123%; at 340 wild-type kinases [4] (MAPKAPK5, 0.2 µM, read-out: residual activity), 123%; at 340 wild-type kinases [5] (0.2 µM 2015, read-out: LRRK2 residual activity), 98.2%; on 340 wild-type kinases [5] (LRRK2, 0.2 µM, read-out: residual activity) it was 98.2%. Moreover, the remaining activity at 1 µM amounted to 97.4% on 340 wild-type kinases [1] (1 µM 2015, read-out: INSRR residual activity); 97.4% on 340 wild-type kinases [1] (INSRR, 1 µM, read-out: residual activity); 106% at 340 wild-type kinases [2] (1 µM 2015, read-out: GRK7 residual activity); 106% at 340 wild-type kinases [2] (GRK7, 1 µM, read-out: residual activity); 98.2% on 340 wild-type kinases [3] (1 µM 2015, read-out: RIPK4 residual activity); 98.2% at 340 wild-type kinases [3] (RIPK4, 1 µM, read-out: residual activity). For the same molecule, the remaining activity at 1 µM at 340 wild-type kinases [4] (1 µM 2015, read-out: MAPKAPK5 residual activity) stood at 109%; at 340 wild-type kinases [4] (MAPKAPK5, 1 µM, read-out: residual activity), 109%; at 340 wild-type kinases [5] (1 µM 2015, read-out: LRRK2 residual activity), 93.8%; on 340 wild-type kinases [5] (LRRK2, 1 µM, read-out: residual activity), 93.8%.
